# System: Elongator complex protein 1 (ELP1, also referred to as IKBKAP)
# Assay: IKBKAP-HTRF assay (IKBKAP protein in lysates of FD patient-derived fibroblasts)
# Format: cell-based, human
# Conditions: 48 hours incubation, 7-point concentration curve
# Outline: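 FD patient-derived fibroblasts (10,000/well) were treated 48 h at 37 °C with a 7-point, 3.16-fold compound series in triplicate, then lysed. IKBKAP was read by sandwich HTRF (donor/acceptor anti-IKAP antibodies, overnight at 4 °C, 665/620 nm). MFI is ΔF over vehicle ΔF; EC2x is the concentration giving twice the vehicle IKBKAP level.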
SMILES,EC2x for IKBKAP protein expression (concentration producing two times the amount of IKBKAP protein vs DMSO vehicle control),MFI (maximum fold increase in IKBKAP protein abundance relative to the vehicle control)
"N#Cc1csc2c(NCc3ccco3)cc(Cl)nc12 [Compound 14, 5-chloro-7-{[(furan-2-yl)methyl]amino}thieno[3,2-b]pyridine-3-carbonitrile]",*** (between >0.02 μM and ≤0.5 μM is indicated by three stars (***)),***** (>4.9 is indicated by five stars (*****))
"OCc1cc2nc(Cl)cc(NCc3ccco3)c2s1 [Compound 5, (5-chloro-7-{[(furan-2-yl)methyl]amino}thieno[3,2-b]pyridin-2-yl)methanol]",* (An EC2x>1 μM is indicated by one star (*)),* (An MFI≤1.9 is indicated by one star (*))
"C[C@H](N)Cc1sc2c(NCc3ccco3)cc(Cl)nc2c1C1CC1 [Compound 51, 2-[(2S)-2-aminopropyl]-5-chloro-3-cyclopropyl-N-[(furan-2-yl)methyl]thieno[3,2-b]pyridin-7-amine]",***** (≤0.005 μM is indicated by five stars (*****)),***** (>4.9 is indicated by five stars (*****))
"COC[C@H](N)Cc1sc2c(NCc3ccco3)cc(Cl)nc2c1Cl [Compound 40, 2-[(2R)-2-amino-3-methoxypropyl]-3,5-dichloro-N-[(furan-2-yl)methyl]thieno[3,2-b]pyridin-7-amine]",***** (≤0.005 μM is indicated by five stars (*****)),***** (>4.9 is indicated by five stars (*****))
"C[C@@H](O)[C@H](N)Cc1sc2c(NCc3ccco3)cc(Cl)nc2c1Br [Compound 165, (2R,3R)-3-amino-4-(3-bromo-5-chloro-7-{[(furan-2-yl)methyl]amino}thieno[3,2-b]pyridin-2-yl)butan-2-ol]",***** (≤0.005 μM is indicated by five stars (*****)),***** (>4.9 is indicated by five stars (*****))
"Cc1c(C[C@H](C)N)sc2c(NCc3ncc(F)s3)cc(Cl)nc12 [Compound 129, 2-[(2S)-2-aminopropyl]-5-chloro-N-[(5-fluoro-1,3-thiazol-2-yl)methyl]-3-methylthieno[3,2-b]pyridin-7-amine]",**** (between >0.005 μM and ≤0.02 μM is indicated by four stars (****)),***** (>4.9 is indicated by five stars (*****))
"N#CC[C@H](N)Cc1sc2c(NCc3cccs3)cc(Cl)nc2c1Cl [Compound 106, (3S)-3-amino-4-(3,5-dichloro-7-{[(thiophen-2-yl)methyl]amino}thieno[3,2-b]pyridin-2-yl)butanenitrile]",***** (≤0.005 μM is indicated by five stars (*****)),***** (>4.9 is indicated by five stars (*****))
"Cc1c(C[C@@H](N)CCF)sc2c(NCc3ccco3)cc(Cl)nc12 [Compound 95, 2-[(2S)-2-amino-4-fluorobutyl]-5-chloro-N-[(furan-2-yl)methyl]-3-methylthieno[3,2-b]pyridin-7-amine]",***** (≤0.005 μM is indicated by five stars (*****)),***** (>4.9 is indicated by five stars (*****))
"Clc1cc(NCc2ccco2)c2scc(Cl)c2n1 [Compound 6, 3,5-dichloro-N-[(furan-2-yl)methyl]thieno[3,2-b]pyridin-7-amine]",*** (between >0.02 μM and ≤0.5 μM is indicated by three stars (***)),***** (>4.9 is indicated by five stars (*****))
"Cc1c(C[C@@H](N)CC#N)sc2c(NCc3ccco3)cc(Cl)nc12 [Compound 111, (3S)-3-amino-4-(5-chloro-7-{[(furan-2-yl)methyl]amino}-3-methylthieno[3,2-b]pyridin-2-yl)butanenitrile]",**** (between >0.005 μM and ≤0.02 μM is indicated by four stars (****)),***** (>4.9 is indicated by five stars (*****))
"Cc1c(C[C@@H](N)CC(C)C)sc2c(NCc3nccs3)cc(Cl)nc12 [Compound 68, 2-[(2S)-2-amino-4-methylpentyl]-5-chloro-3-methyl-N-[(1,3-thiazol-2-yl)methyl]thieno[3,2-b]pyridin-7-amine]",**** (between >0.005 μM and ≤0.02 μM is indicated by four stars (****)),***** (>4.9 is indicated by five stars (*****))
"C[C@H](N)C(O)c1sc2c(NCc3cccs3)cc(Cl)nc2c1Cl (stereo partly drawn) [Compound 127, (2S)-2-amino-1-(3,5-dichloro-7-{[(thiophen-2-yl)methyl]amino}thieno[3,2-b]pyridin-2-yl)propan-1-ol]",**** (between >0.005 μM and ≤0.02 μM is indicated by four stars (****)),***** (>4.9 is indicated by five stars (*****))
"N[C@@H](CCO)Cc1sc2c(NCc3ccccc3F)cc(Cl)nc2c1Br [Compound 100, (3S)-3-amino-4-(3-bromo-5-chloro-7-{[(2-fluorophenyl)methyl]amino}thieno[3,2-b]pyridin-2-yl)butan-1-ol]",***** (≤0.005 μM is indicated by five stars (*****)),***** (>4.9 is indicated by five stars (*****))
"N[C@H](CF)Cc1sc2c(NCc3nccs3)cc(Cl)nc2c1Br [Compound 66, 2-[(2S)-2-amino-3-fluoropropyl]-3-bromo-5-chloro-N-[(1,3-thiazol-2-yl)methyl]thieno[3,2-b]pyridin-7-amine]",*** (between >0.02 μM and ≤0.5 μM is indicated by three stars (***)),* (An MFI≤1.9 is indicated by one star (*))
"C#C[C@H](N)Cc1sc2c(NCc3ccco3)cc(Cl)nc2c1C [Compound 123, 2-[(2R)-2-aminobut-3-yn-1-yl]-3-methyl-5-chloro-N-[(furan-2-yl)methyl]thieno[3,2-b]pyridin-7-amine]",***** (≤0.005 μM is indicated by five stars (*****)),***** (>4.9 is indicated by five stars (*****))
"Cc1c(C[C@@H](N)CC#N)sc2c(NCc3cccs3)cc(Cl)nc12 [Compound 105, (3S)-3-amino-4-(5-chloro-3-methyl-7-{[(thiophen-2-yl)methyl]amino}thieno[3,2-b]pyridin-2-yl)butanenitrile]",***** (≤0.005 μM is indicated by five stars (*****)),***** (>4.9 is indicated by five stars (*****))
"N[C@@H](CCF)Cc1sc2c(NCc3ccco3)cc(Cl)nc2c1Br [Compound 97, 2-[(2S)-2-amino-4-fluorobutyl]-3-bromo-5-chloro-N-[(furan-2-yl)methyl]thieno[3,2-b]pyridin-7-amine]",***** (≤0.005 μM is indicated by five stars (*****)),***** (>4.9 is indicated by five stars (*****))
"Cc1c(C[C@@H](N)CCF)sc2c(NCc3cccs3)cc(Cl)nc12 [Compound 92, 2-[(2S)-2-amino-4-fluorobutyl]-5-chloro-3-methyl-N-[(thiophen-2-yl)methyl]thieno[3,2-b]pyridin-7-amine]",***** (≤0.005 μM is indicated by five stars (*****)),***** (>4.9 is indicated by five stars (*****))
"N[C@H](Cc1sc2c(NCc3cccs3)cc(Cl)nc2c1Br)CC(F)F [Compound 107, 2-[(2S)-2-amino-4,4-difluorobutyl]-3-bromo-5-chloro-N-[(thiophen-2-yl)methyl]thieno[3,2-b]pyridin-7-amine]",***** (≤0.005 μM is indicated by five stars (*****)),***** (>4.9 is indicated by five stars (*****))
"C[C@H](N)Cc1sc2c(NCc3cccs3)cc(Cl)nc2c1Cl [Compound 52, 2-[(2S)-2-aminopropyl]-3,5-dichloro-N-[(thiophen-2-yl)methyl]thieno[3,2-b]pyridin-7-amine]",***** (≤0.005 μM is indicated by five stars (*****)),***** (>4.9 is indicated by five stars (*****))
"C=C[C@H](N)Cc1sc2c(NCc3nccs3)cc(Cl)nc2c1Br [Compound 72, 2-[(2R)-2-aminobut-3-en-1-yl]-3-bromo-5-chloro-N-[(1,3-thiazol-2-yl)methyl]thieno[3,2-b]pyridin-7-amine]",***** (≤0.005 μM is indicated by five stars (*****)),***** (>4.9 is indicated by five stars (*****))
"C[C@H](N)C(O)c1sc2c(NCc3ccco3)cc(Cl)nc2c1Br (stereo partly drawn) [Compound 153, (2S)-2-amino-1-(3-bromo-5-chloro-7-{[(furan-2-yl)methyl]amino}thieno[3,2-b]pyridin-2-yl)propan-1-ol]",*** (between >0.02 μM and ≤0.5 μM is indicated by three stars (***)),** (between >1.9 and ≤2.9 is indicated by two stars (**))

# — patent publication US12384797B2, “Thioeno[3,2-b] pyridin-7-amine compounds for treating familial dysautonomia” (PTC THERAPEUTICS, INC., priority 2019, dated 2025)
